According to patent US9724352B2, “Pyrrolo[2,1-F[1,2,4]triazine compounds, preparation methods and applications thereof” (Shanghai Institute of Materia Medica, Chinese Academy of …, priority 2012, dated 2017):
Blank lines part the entries; values can stand above or below the molecule they belong to.

How the values were obtained:
COLO680N = assay: Proliferation of human esophagus cancer cells; type: cell-based; conditions: COLO-680N
Description: (§1) Compounds BYL719 (shown below), CYH33 (compound I-33) and I-27 were selected to test their activity on the proliferation of 11 species of human esophagus cancer cells.
(§2) The results reported in FIG. 3 were the average GI50 value and SD value of three experiments. The results were arranged according to the GI50 value of CYH33.

Detroit 562 = assay: Proliferation of human esophagus cancer cells; type: cell-based
Description: as §1, §2

KYSE140 = assay: Proliferation of human esophagus cancer cells; type: cell-based
Description: as §1, §2

KYSE150 = assay: Proliferation of human esophagus cancer cells; type: cell-based
Description: as §1, §2

KYSE180 = assay: Proliferation of human esophagus cancer cells; type: cell-based
Description: as §1, §2

KYSE2 = assay: Proliferation of human esophagus cancer cells; type: cell-based
Description: as §1, §2

KYSE30 = assay: Proliferation of human esophagus cancer cells; type: cell-based
Description: as §1, §2

KYSE410 = assay: Proliferation of human esophagus cancer cells; type: cell-based
Description: as §1, §2

KYSE450 = assay: Proliferation of human esophagus cancer cells; type: cell-based
Description: as §1, §2

KYSE510 = assay: Proliferation of human esophagus cancer cells; type: cell-based
Description: as §1, §2

KYSE70 = assay: Proliferation of human esophagus cancer cells; type: cell-based
Description: as §1, §2

[1] = tested on: human esophagus cancer KYSE 410 xenograft; assay: Growth of KYSE 410 xenograft subcutaneously transplanted in nude mouse; type: in vivo; conditions: for Relative tumor proliferation rate T/C: 50 mg/kg p.o. once every day
Method: Well-developed tumors in nude mice were cut into 1.5 mm3 fragments and transplanted s.c. into the right flank of nude mice under sterile conditions. The diameters of subcutaneously transplanted tumours in nude mice were measured with a vernier calipe. When the tumour reached a volume 170 mm3, the mice were randomly assigned into two treatment groups: CYH33 50 mg/kg group or BYL-719 50 mg/kg group. Control groups were given the same amount of normal saline, and treatment groups received tested compounds (p.o). Compounds were administered orally once every day for 3 weeks. Evaluation index of antitumor activity was relative tumor proliferation rate T/C (%), the calculation formula of which was as follows: T/C (%)=(TRTV/CRTV)×100%, TRTV:RTV of treatment group; CRTV:RTV of negative control group.

PI3Kα = PI3Kα (Homo sapiens (Human), UniProt P42336); assay: Inhibition on PI3K kinase activity (Kinase-Glo Plus luminescent assay); type: biochemical; conditions: 2 μM ATP, 1 hour at room temperature
Sequence of PI3Kα (P42336 whole entry): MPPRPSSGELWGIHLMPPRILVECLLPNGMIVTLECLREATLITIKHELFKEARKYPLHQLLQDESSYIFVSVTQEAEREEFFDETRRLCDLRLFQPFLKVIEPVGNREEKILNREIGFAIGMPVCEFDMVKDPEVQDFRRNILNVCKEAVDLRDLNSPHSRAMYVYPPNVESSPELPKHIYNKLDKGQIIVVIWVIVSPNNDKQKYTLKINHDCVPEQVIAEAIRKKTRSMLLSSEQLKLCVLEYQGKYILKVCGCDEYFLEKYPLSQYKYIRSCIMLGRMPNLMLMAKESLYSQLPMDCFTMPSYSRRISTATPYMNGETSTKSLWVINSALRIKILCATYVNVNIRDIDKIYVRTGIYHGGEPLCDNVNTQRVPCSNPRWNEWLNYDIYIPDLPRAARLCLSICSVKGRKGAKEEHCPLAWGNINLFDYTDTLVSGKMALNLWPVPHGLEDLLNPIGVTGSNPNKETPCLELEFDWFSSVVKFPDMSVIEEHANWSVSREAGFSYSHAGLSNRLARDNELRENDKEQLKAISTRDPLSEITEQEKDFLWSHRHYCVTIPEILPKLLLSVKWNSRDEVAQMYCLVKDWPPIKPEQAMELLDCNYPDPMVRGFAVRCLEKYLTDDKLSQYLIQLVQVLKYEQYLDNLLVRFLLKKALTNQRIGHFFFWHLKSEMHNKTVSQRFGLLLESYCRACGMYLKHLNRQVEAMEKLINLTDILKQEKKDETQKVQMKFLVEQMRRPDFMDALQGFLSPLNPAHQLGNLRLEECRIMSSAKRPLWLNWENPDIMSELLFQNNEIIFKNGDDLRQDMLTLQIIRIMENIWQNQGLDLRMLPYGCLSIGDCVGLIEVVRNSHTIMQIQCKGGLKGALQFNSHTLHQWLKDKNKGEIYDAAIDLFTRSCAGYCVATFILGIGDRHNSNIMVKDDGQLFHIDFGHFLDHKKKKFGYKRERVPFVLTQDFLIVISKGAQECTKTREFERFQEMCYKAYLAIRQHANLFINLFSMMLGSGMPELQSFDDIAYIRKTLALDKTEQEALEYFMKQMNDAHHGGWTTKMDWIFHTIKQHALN
Sequence of PI3Kα (P27986 whole entry partner): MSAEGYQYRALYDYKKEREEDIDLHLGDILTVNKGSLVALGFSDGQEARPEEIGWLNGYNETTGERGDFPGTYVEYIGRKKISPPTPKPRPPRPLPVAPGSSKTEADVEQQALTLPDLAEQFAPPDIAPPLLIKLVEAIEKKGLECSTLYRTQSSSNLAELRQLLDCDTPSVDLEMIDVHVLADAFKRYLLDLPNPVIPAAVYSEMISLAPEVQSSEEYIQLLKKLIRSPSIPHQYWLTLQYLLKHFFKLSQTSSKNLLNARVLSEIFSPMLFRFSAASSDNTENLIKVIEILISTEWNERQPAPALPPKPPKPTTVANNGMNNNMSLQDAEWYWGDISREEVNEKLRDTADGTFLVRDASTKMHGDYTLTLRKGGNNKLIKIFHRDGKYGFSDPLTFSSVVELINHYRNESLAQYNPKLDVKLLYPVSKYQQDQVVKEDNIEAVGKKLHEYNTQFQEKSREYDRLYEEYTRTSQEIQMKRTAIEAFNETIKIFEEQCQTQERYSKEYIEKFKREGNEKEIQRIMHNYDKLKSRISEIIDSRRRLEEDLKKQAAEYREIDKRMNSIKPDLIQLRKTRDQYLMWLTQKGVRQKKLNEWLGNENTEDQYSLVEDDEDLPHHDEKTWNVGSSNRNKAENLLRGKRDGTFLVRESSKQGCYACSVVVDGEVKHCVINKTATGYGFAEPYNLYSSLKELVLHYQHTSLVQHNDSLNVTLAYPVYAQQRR
Method: The activity of purified kinase was detected with Kinase-Glo® Plus kinase luminescent assay by measuring the amount of the remaining […] in the solution after the kinase reaction was completed. […] After reaction was performed for 1 hour at room temperature, 10 μL of Kinase Glo-Plus mixture was added and incubated for 1 hour to quench the reaction.

[2] = tested on: human rhabdomyosarcoma Rh30 cells; assay: Proliferation of Rh30 cells (sulforhodamine B); type: cell-based; conditions: for IC50: Homo sapiens, Rh30, 72 h, read-out: IC50 against proliferation of Rh30 cells
Method: Rh30 cells were seeded in a 96-well plate at 3000 cells/well. After the cells adhered, tested compounds at concentration of 10, 3, 1, 0.3, or 0.1 μM were added, and incubated for 72 h. The culture media were discarded and cells were fixed with trichloroacetic acid. After washed with distilled water for five times and dried, sulfonylrhodamine B was added. After washed with 1% glacial acetic acid for five times and dried, trihydroxymethylaminomethane buffer was added. OD value was measured by using a microplate reader at a wavelength of 560 nm.

[3] = Detroit 562, Detroit 562, 1st experiment
[4] = Detroit 562, Detroit 562, 2nd experiment
[5] = Detroit 562, Detroit 562, 3rd experiment
[6] = Detroit 562, Detroit 562, mean of three experiments
[7] = KYSE-140, KYSE140, 1st experiment
[8] = KYSE-140, KYSE140, 2nd experiment
[9] = KYSE-140, KYSE140, 3rd experiment
[10] = KYSE-140, KYSE140, mean of three experiments
[11] = KYSE-150, KYSE150, 1st experiment
[12] = KYSE-150, KYSE150, 2nd experiment
[13] = KYSE-150, KYSE150, 3rd experiment
[14] = KYSE-150, KYSE150, mean of three experiments
[15] = KYSE-180, KYSE180, 1st experiment
[16] = KYSE-180, KYSE180, 2nd experiment
[17] = KYSE-180, KYSE180, 3rd experiment
[18] = KYSE-180, KYSE180, mean of three experiments
[19] = KYSE2, mean of three experiments
[20] = KYSE-30, KYSE30, 1st experiment
[21] = KYSE-30, KYSE30, 2nd experiment
[22] = KYSE-30, KYSE30, 3rd experiment
[23] = KYSE-30, KYSE30, mean of three experiments
[24] = KYSE-410, KYSE410, 1st experiment
[25] = KYSE-410, KYSE410, 2nd experiment
[26] = KYSE-410, KYSE410, 3rd experiment
[27] = KYSE-410, KYSE410, mean of three experiments
[28] = KYSE-450, KYSE450, 1st experiment
[29] = KYSE-450, KYSE450, 2nd experiment
[30] = KYSE-450, KYSE450, 3rd experiment
[31] = KYSE-450, KYSE450, mean of three experiments
[32] = KYSE-510, KYSE510, 1st experiment
[33] = KYSE-510, KYSE510, 2nd experiment
[34] = KYSE-510, KYSE510, 3rd experiment
[35] = KYSE-510, KYSE510, mean of three experiments
[36] = KYSE-70, KYSE70, 1st experiment
[37] = KYSE-70, KYSE70, 2nd experiment
[38] = KYSE-70, KYSE70, 3rd experiment
[39] = KYSE-70, KYSE70, mean of three experiments

IC50 (PI3Kα): 8.37 nM
IC50 [2]: 730 nM
GI50 (COLO680N; 1st experiment): 959 nM
GI50 (COLO680N; 2nd experiment): 915 nM
GI50 (COLO680N; 3rd experiment): 917 nM
GI50 (COLO680N; mean of three experiments): 930 nM
GI50 (Detroit 562; [3]): 580 nM
GI50 (Detroit 562; [4]): 527 nM
GI50 (Detroit 562; [5]): 607 nM
GI50 (Detroit 562; [6]): 571 nM
GI50 (KYSE140; [7]): 898 nM
GI50 (KYSE140; [8]): 638 nM
GI50 (KYSE140; [9]): 792 nM
GI50 (KYSE140; [10]): 776 nM
GI50 (KYSE150; [11]): 202 nM
GI50 (KYSE150; [12]): 276 nM
GI50 (KYSE150; [13]): 150 nM
GI50 (KYSE150; [14]): 209 nM
GI50 (KYSE180; [15]): 100 nM
GI50 (KYSE180; [16]): 169 nM
GI50 (KYSE180; [17]): 77 nM
GI50 (KYSE180; [18]): 115 nM
GI50 (KYSE2; KYSE2, 1st experiment): 255 nM
GI50 (KYSE2; KYSE2, 2nd experiment): 165 nM
GI50 (KYSE2; KYSE2, 3rd experiment): 310 nM
GI50 (KYSE2; [19]): 243 nM
GI50 (KYSE30; [20]): 2350 nM
GI50 (KYSE30; [21]): 1100 nM
GI50 (KYSE30; [22]): 1070 nM
GI50 (KYSE30; [23]): 1510 nM
GI50 (KYSE410; [24]): 468 nM
GI50 (KYSE410; [25]): 959 nM
GI50 (KYSE410; [26]): 229 nM
GI50 (KYSE410; [27]): 552 nM
GI50 (KYSE450; [28]): 1230 nM
GI50 (KYSE450; [29]): 1000 nM
GI50 (KYSE450; [30]): 932 nM
GI50 (KYSE450; [31]): 1050 nM
GI50 (KYSE510; [32]): 247 nM
GI50 (KYSE510; [33]): 390 nM
GI50 (KYSE510; [34]): 204 nM
GI50 (KYSE510; [35]): 280 nM
GI50 (KYSE70; [36]): 109 nM
GI50 (KYSE70; [37]): 59 nM
GI50 (KYSE70; [38]): 112 nM
GI50 (KYSE70; [39]): 93 nM
Compound: CS(=O)(=O)N1CCN(Cc2cc3c(N4CCOCC4)nc(-c4cnc(N)cc4C(F)(F)F)nn3c2)CC1 [Compound I-27, 5-(6-((4-(methylsulfonyl)piperazin-1-yl)methyl)-4-morpholinopyrrolo [2,1-f][1,2,4]triazin-2-yl)-4-(trifluoromethyl)pyridin-2-amine]

IC50 (PI3Kα): 7.15 nM
Compound: CCOC(=O)Nc1cc(C(F)(F)F)c(-c2nc(N3CCOCC3)c3cc(CN4CCN(S(C)(=O)=O)CC4)cn3n2)cn1 [Compound I-32, Ethyl (5-(6-((4-(methylsulfonyl)piperazin-1-yl)methyl)-4-morpholinopyrrolo[2,1-f-][1,2,4]triazin-2-yl)-4-(trifluoromethyl)pyridin-2-yl)carbamate]

IC50 (PI3Kα): 5.67 nM
IC50 [2]: 470 nM
Compound: COC(=O)Nc1cc(C(F)(F)F)c(-c2nc(N3CCOC[C@@H]3C)c3cc(CN4CCN(S(C)(=O)=O)CC4)cn3n2)cn1 [Compound I-35, (S)-methyl (5-(4-(3-methylmorpholino)-6-((4-(methylsulfonyl)piperazin-1-yl)methyl)pyrrolo[2,1-f][1,2,4]triazin-2-yl)-4-(trifluoromethyl)pyridin-2-yl)carbamate]

Continued, molecule first:

Compound: Cc1nc(NC(=O)N2CCC[C@H]2C(N)=O)sc1-c1ccnc(C(C)(C)C(F)(F)F)c1 [BYL719, reference compound]
GI50 (COLO680N; 1st experiment): 6120 nM
GI50 (COLO680N; 2nd experiment): 6050 nM
GI50 (COLO680N; 3rd experiment): 6100 nM
GI50 (COLO680N; mean of three experiments): 6090 nM
GI50 (Detroit 562; [3]): 1970 nM
GI50 (Detroit 562; [4]): 2300 nM
GI50 (Detroit 562; [5]): 2380 nM
GI50 (Detroit 562; [6]): 2220 nM
GI50 (KYSE140; [7]): 2450 nM
GI50 (KYSE140; [8]): 3610 nM
GI50 (KYSE140; [9]): 2740 nM
GI50 (KYSE140; [10]): 2930 nM
GI50 (KYSE150; [11]): 1640 nM
GI50 (KYSE150; [12]): 2110 nM
GI50 (KYSE150; [13]): 1670 nM
GI50 (KYSE150; [14]): 1810 nM
GI50 (KYSE180; [15]): 354 nM
GI50 (KYSE180; [16]): 740 nM
GI50 (KYSE180; [17]): 553 nM
GI50 (KYSE180; [18]): 549 nM
GI50 (KYSE2; KYSE2, 1st experiment): 1440 nM
GI50 (KYSE2; KYSE2, 2nd experiment): 911 nM
GI50 (KYSE2; KYSE2, 3rd experiment): 1870 nM
GI50 (KYSE2; [19]): 1410 nM
GI50 (KYSE30; [20]): 10000 nM
GI50 (KYSE30; [21]): 6830 nM
GI50 (KYSE30; [22]): 10000 nM
GI50 (KYSE30; [23]): 8940 nM
GI50 (KYSE410; [24]): 1890 nM
GI50 (KYSE410; [25]): 816 nM
GI50 (KYSE410; [26]): 874 nM
GI50 (KYSE410; [27]): 1190 nM
GI50 (KYSE450; [28]): 8590 nM
GI50 (KYSE450; [29]): 10000 nM
GI50 (KYSE450; [30]): 8800 nM
GI50 (KYSE450; [31]): 9130 nM
GI50 (KYSE510; [32]): 1530 nM
GI50 (KYSE510; [33]): 835 nM
GI50 (KYSE510; [34]): 1030 nM
GI50 (KYSE510; [35]): 1130 nM
GI50 (KYSE70; [36]): 452 nM
GI50 (KYSE70; [37]): 450 nM
GI50 (KYSE70; [38]): 478 nM
GI50 (KYSE70; [39]): 460 nM
growth of KYSE 410 xenograft (in words) ([1]; 50 mg/kg p.o. every day for 3 weeks): significantly slowed down
Relative tumor proliferation rate T/C ([1]; d0): 100.00%
Relative tumor proliferation rate T/C ([1]; d3): 56.95%
Relative tumor proliferation rate T/C ([1]; d7): 31.23%
Relative tumor proliferation rate T/C ([1]; d10): 24.77%
Relative tumor proliferation rate T/C ([1]; d14): 22.12%
Relative tumor proliferation rate T/C ([1]; d17): 19.32%
Relative tumor proliferation rate T/C ([1]; d21): 15.37%

Compound: CN1CCN(C(=O)c2ccc(NC(=O)Nc3ccc(-c4nc(N5CCOCC5)c5cc(CN6CCN(S(C)(=O)=O)CC6)cn5n4)cc3)cc2)CC1 [Compound I-22, 1-(4-(4-methylpiperazine-carbonyl)phenyl)-3-(4-(6-((4-(methylsulfonyl)piperazin-1-yl)methy 1)-4-morpholinopyrrolo[2,1-f][1,2,4]triazin-2-yl)phenyl)urea]
IC50 (PI3Kα): 9.59 nM
IC50 [2]: 540 nM

Compound: CS(=O)(=O)N1CCN(Cc2cc3c(N4CCOCC4)nc(-c4cnc(NC(=O)Nc5ccc(F)cc5)cc4C(F)(F)F)nn3c2)CC1 [Compound I-28, 1-(4-fluorophenyl)-3-(5-(6-((4-(methylsulfonyl)piperazin-1-yl)methyl)-4-morpholinopyrrolo[2,1-f][1,2,4]triazin-2-yl)-4-(trifluoromethyl)pyridin-2-yl)urea]
IC50 (PI3Kα): 9.3 nM
inhibitory activity on Rh30 cell proliferation (in words) ([2]; 72 h): tens of nanomolar
IC50 [2]: 74 nM
